{"source": "patent US20230330053A1", "about": "“METHOD FOR TREATING INFECTIONS” (priority 2020, published 2023)", "key": {"SARS-CoV-2": {"test_system": "SARS-CoV-2", "assay": "Sx direct injection into SARS-CoV-2 suspension in MEM, Vero E6 plaque assay", "assay_type": "cell-based"}, "[1]": {"test_system": "SARS-CoV-2 (USA-WA1/2020 strain)", "assay": "Direct injection into SARS-CoV-2 viral suspension, plaque assay on Vero E6 cells", "assay_type": "cell-based", "conditions": "for Effect on viral burden at the lower volumes: formula 2 and 5 μls, or corresponding propionic acid 1.4 and 3.9 μls, isoamyl hexanoates 0.6 and 1.1 μls"}, "[2]": {"target": "receptor binding domain (RBD) of the SARS-CoV-2 spike protein to ACE2 (Severe acute respiratory syndrome coronavirus 2, UniProt P0DTC2)", "conditions": "cited from earlier work"}}, "note": "“Also recorded” adds a separate entry of the source.", "data": [{"molecule": "isoamyl hexanoates", "values": [{"measurement": "Reduction in activity of the virus", "setting": "SARS-CoV-2; 1.1 μL alone, at about 100 min", "value": "~1", "unit": "log"}, {"measurement": "Virus activity after 300 min relative to control", "setting": "SARS-CoV-2; esters alone", "value": "about equaled that of the control; also recorded: approximately equaled that of the control"}, {"measurement": "General reduction in virus activity within about 30 min", "setting": "SARS-CoV-2; esters alone, over the range of concentrations tested", "value": "~1", "unit": "log"}, {"measurement": "Reduction in activity over the course of 300 minutes", "setting": "SARS-CoV-2; highest concentration of 4.6 μL alone", "value": "1 order of magnitude"}, {"measurement": "Suppression of SARS-CoV-2 by the component alone", "setting": "[1]; 37° C., all treatment arms", "value": "substantially less effective"}, {"measurement": "Effect on viral burden at the lower volumes", "setting": "[1]", "value": "minimal reduction of viral burden"}]}, {"molecule": "CCC(=O)O", "note": "[propionic acid]", "values": [{"measurement": "Volume necessary for a relative immediate inactivation of the virus", "setting": "SARS-CoV-2; acid alone", "value": "at least 15.4 μL"}, {"measurement": "Volume necessary to get any appreciable activity", "setting": "SARS-CoV-2; acid alone", "value": "up to 7.7 μL"}, {"measurement": "Decline in viral burden after 360 mins post-addition", "setting": "[1]; 37° C., 1.4 μls alone", "value": 0.29, "unit": "log10 PFU/ml"}, {"measurement": "Decline in viral burden after 360 mins post-addition", "setting": "[1]; 37° C., 3.9 μls alone", "value": 0.98, "unit": "log10 PFU/ml"}, {"measurement": "Effect on viral burden at the lower volumes", "setting": "[1]", "value": "minimal reduction of viral burden"}]}, {"molecule": "GluGluLeuGlu", "values": [{"measurement": "Reduction of activity on adding peptide to the virus", "setting": "[2]", "value": 34, "unit": "%"}]}]}
